Experimental data taken from PMC9140701, “Immunomodulatory Role of BLG-Derived Peptides Based on Simulated Gastrointestinal Digestion and DC-T Cell from Mice Allergic to Cow’s Milk” (Foods, 2022).
Ends that are not written are not given here.

Legend:
Caco-2 cell monolayer = assay: Caco-2 monolayer transport (apparent permeability), normal and IL-1β-induced inflammation model; type: in vitro ADME, human; conditions: integrity check
Description: (§1) Caco-2 cells (a human colon adenocarcinoma cell line) were preserved in our lab and cultured in DMEM supplemented with 12% (v/v) FBS (FND500, ExCell Bio, Shanghai, China), 1% (v/v) L-glutamine, 1% (v/v) streptomycin–penicillin, and 1% (v/v) nonessential amino acids at 37 °C and 5% CO2. Caco-2 cells were seeded in 12-well Transwell plates at a density of 2 × 10^5 cells per well. On the 10th to 21st days, the transepithelial electrical resistance (TEER) of each well was detected using a Millicell ERS-2 V-ohm meter (Millipore, Boston, MA, USA). […] The protein profile of cow’s milk after simulated digestion was detected by (A) Tricine-SDS-PAGE. Lane 1: unstained low range protein ladder. Lane 2: pepsin. Lane 3: the cow’s milk. Lane 4: cow’s milk digested in the simulated adult gastrointestinal fluid for 0 min. Lane 5: cow’s milk digested in the simulated adult gastric fluid for 60 min. Lane 6: cow’s milk digested in the simulated adult gastrointestinal fluid for 60 min. Lane 7: cow’s milk digested in the simulated infant gastrointestinal fluid for 0 min. Lane 8: cow’s milk digested in the simulated infant gastric fluid for 60 min. Lane 9: cow’s milk digested in the infant simulated gastrointestinal fluid for 60 min. […] Y-axis value represents the occurrence numbers of amino acids of BLG peptides. (C) The whole amino acid sequence of BLG used in our study; the red letters indicate the areas where unique peptides are present after the simulated digestion of the infants, while the green letters represent unique peptides in the adults’ digestion. (D) The Papp of BLG peptides across Caco-;2 monolayers at 30 min, 1 h, 2 h, 3 h, and 4 h in the normal model and IL-1β-induced inflammation model, respectively. The data were calculated in three replicates. BLG, beta-lactoglobulin. Papp, apparent permeability coefficients.

[1] = as above; type: in vitro ADME, human; conditions: human; Caco-2 monolayer, 12-well Transwell, 21 days, TEER > 400 Ω × cm^2, from AP side, 37 °C; within 2 h, at the three time points; normal model and IL-1β-induced inflammation model; three replicates; read-out: apparent permeability coefficient (Papp)
Description: as §1

| Molecule | fluorescein sodium transport permeability (Caco-2 cell monolayer; Caco-2 monolayer after 21 days, normal mode) [μg/h·cm^2] | fluorescein sodium transport permeability (Caco-2 cell monolayer; Caco-2 monolayer, inflammatory mode (IL-1β 10 ng/mL added on the 21st day, removed after 2 days)) [μg/h·cm^2] | Papp A→B [1] [×10⁻⁶ cm/s] |
| --- | --- | --- | --- |
| O=C([O-])c1ccccc1-c1c2ccc(=O)cc-2oc2cc([O-])ccc12.[Na+].[Na+] [fluorescein sodium, reference compound] | 1.19 | 1.71 |  |
| MAASDISLLDAQ [Peptide A2] |  |  | > 2 |
| RVYVEELKPTPEGDLEILLQK [Peptide A3] |  |  | > 2 |
| LIVTQTMKGLDIQK [Peptide A1] |  |  | > 2 |
